Measurements published in ChEMBL document CHEMBL1201862, “PubChem BioAssay data set” (2004).
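48-hour exposure; five concentrations; linearly interpolated endpoints. Here, GI50 denotes the concentration required for 50% inhibition of growth.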 Calls of active or inactive are those of the source. No stated cut-off is given here; in the data, active = GI50 up to about 1.1 µM and inactive = higher.

Assays:
Experiment in all cases: growth of human tumour cells (NCI), 48 h
MDA-MB-435 = test system: MDA-MB-435
HCT-15 = test system: HCT-15
PC-3 = test system: PC-3
OVCAR-5 = test system: OVCAR-5
SF-295 = test system: SF-295
UACC-62 = test system: UACC-62
HOP-62 = test system: HOP-62
KM12 = test system: KM12
ACHN = test system: ACHN
NCI-H226 = test system: NCI-H226
A549 = test system: A549
EKVX = test system: EKVX
RXF 393 = test system: RXF 393
MDA-N = test system: MDA-N
HCC 2998 = test system: HCC 2998
K562 = test system: K562
SR = test system: SR
HT-29 = test system: HT-29
SK-MEL-2 = test system: SK-MEL-2
CAKI-1 = test system: CAKI-1
A498 = test system: A498
SK-MEL-28 = test system: SK-MEL-28
LOX IMVI = test system: LOX IMVI
RPMI-8226 = test system: RPMI-8226
TK-10 = test system: TK-10
HL-60 = test system: HL-60
COLO 205 = test system: COLO 205
T47D = test system: T47D
MOLT-4 = test system: MOLT-4
MDA-MB-231 = test system: MDA-MB-231
OVCAR-3 = test system: OVCAR-3
DU-145 = test system: DU-145
NCI-H460 = test system: NCI-H460
Hs-578T = test system: Hs-578T
HCT-116 = test system: HCT-116
786-0 = test system: 786-0
OVCAR-8 = test system: OVCAR-8
BT-549 = test system: BT-549
CCRF-CEM = test system: CCRF-CEM
U-251 = test system: U-251
SF-268 = test system: SF-268
SN12C = test system: SN12C
SNB-19 = test system: SNB-19
SK-MEL-5 = test system: SK-MEL-5
SF-539 = test system: SF-539
NCI-H522 = test system: NCI-H522
IGROV-1 = test system: IGROV-1
M14 = test system: M14
UACC-257 = test system: UACC-257
NCI-H23 = test system: NCI-H23
SW-620 = test system: SW-620
Malme-3M = test system: Malme-3M
SK-OV-3 = test system: SK-OV-3
OVCAR-4 = test system: OVCAR-4
NCI/ADR-RES = test system: NCI/ADR-RES
MCF7 = test system: MCF7
UO-31 = test system: UO-31
HOP-92 = test system: HOP-92
SNB-75 = test system: SNB-75

Measured: GI50

CC(C)=CC(=O)O[C@@H]1CC(C)(C)CC2C3=CCC4[C@]56CC[C@](O)(OC5)C(C)(C)C6CC[C@@]4(C)C3(C)CC[C@]21C(=O)O (stereo partly drawn)
31.4 µM: HCT-15
inactive: MDA-MB-435 > 100 µM | PC-3 33.2 µM | OVCAR-5 > 100 µM | SF-295 56.5 µM | UACC-62 > 100 µM | HOP-62 64.3 µM | KM12 33 µM | ACHN 25.8 µM | NCI-H226 34.2 µM | A549 33.7 µM | EKVX > 100 µM | RXF 393 > 100 µM | MDA-N > 100 µM | HCC 2998 > 100 µM | K562 48 µM | SR 61 µM | HT-29 38.4 µM | SK-MEL-2 > 100 µM | CAKI-1 > 100 µM | A498 > 100 µM | SK-MEL-28 > 100 µM | LOX IMVI 17.1 µM | RPMI-8226 27.8 µM | TK-10 63.1 µM | HL-60 44.2 µM | COLO 205 22.8 µM | T47D > 100 µM | MOLT-4 55.2 µM | MDA-MB-231 > 100 µM | OVCAR-3 31.3 µM | DU-145 56.4 µM | NCI-H460 35.2 µM | Hs-578T > 100 µM | HCT-116 38 µM | 786-0 69.8 µM | OVCAR-8 59.6 µM | BT-549 > 100 µM | CCRF-CEM 41.7 µM | U-251 32.9 µM | SF-268 74.1 µM | SN12C 53.2 µM | SNB-19 54.3 µM | SK-MEL-5 > 100 µM | SF-539 38.5 µM | NCI-H522 51.6 µM | IGROV-1 31.8 µM | M14 > 100 µM | UACC-257 > 100 µM | NCI-H23 26.1 µM | SW-620 > 100 µM | Malme-3M > 100 µM | SK-OV-3 > 100 µM | OVCAR-4 63.2 µM | NCI/ADR-RES 47.6 µM | MCF7 > 100 µM

CNc1ncnc2c1cnn2Cc1cn(CCCCO)nn1
inactive: MDA-MB-435 > 100 µM | PC-3 > 100 µM | OVCAR-5 > 100 µM | UO-31 > 100 µM | SF-295 > 100 µM | UACC-62 > 100 µM | HOP-62 > 100 µM | KM12 > 100 µM | ACHN > 100 µM | NCI-H226 > 100 µM | A549 > 100 µM | EKVX > 100 µM | RXF 393 > 100 µM | MDA-N > 100 µM | HCC 2998 > 100 µM | K562 > 100 µM | SR > 100 µM | HT-29 > 100 µM | SK-MEL-2 > 100 µM | CAKI-1 > 100 µM | A498 > 100 µM | SK-MEL-28 > 100 µM | LOX IMVI > 100 µM | RPMI-8226 > 100 µM | TK-10 > 100 µM | COLO 205 > 100 µM | T47D > 100 µM | MOLT-4 > 100 µM | MDA-MB-231 > 100 µM | OVCAR-3 > 100 µM | DU-145 > 100 µM | NCI-H460 > 100 µM | Hs-578T > 100 µM | HCT-116 > 100 µM | 786-0 > 100 µM | OVCAR-8 > 100 µM | BT-549 > 100 µM | CCRF-CEM > 100 µM | U-251 > 100 µM | SF-268 > 100 µM | SN12C > 100 µM | SNB-19 > 100 µM | HOP-92 > 100 µM | SK-MEL-5 > 100 µM | SF-539 > 100 µM | NCI-H522 > 100 µM | IGROV-1 > 100 µM | M14 > 100 µM | UACC-257 > 100 µM | NCI-H23 > 100 µM | SW-620 > 100 µM | Malme-3M > 100 µM | SK-OV-3 > 100 µM | OVCAR-4 > 100 µM | NCI/ADR-RES > 100 µM | MCF7 > 100 µM
> 100 µM: HCT-15

CCCCCC/C=C\CCCCCCCCC(=O)c1cccc(OC)c1OC
> 100 µM: HCT-15
inactive: MDA-MB-435 84.7 µM | PC-3 71 µM | OVCAR-5 > 100 µM | UO-31 > 100 µM | SF-295 45.7 µM | UACC-62 > 100 µM | HOP-62 > 100 µM | KM12 84.7 µM | ACHN > 100 µM | NCI-H226 > 100 µM | A549 > 100 µM | EKVX > 100 µM | RXF 393 21 µM | MDA-N 91.8 µM | HCC 2998 > 100 µM | K562 27.5 µM | SR 64.9 µM | HT-29 41.9 µM | SK-MEL-2 > 100 µM | CAKI-1 > 100 µM | A498 26 µM | SK-MEL-28 > 100 µM | LOX IMVI 16.8 µM | RPMI-8226 34 µM | TK-10 > 100 µM | HL-60 14.8 µM | COLO 205 87.3 µM | T47D 29.2 µM | MOLT-4 25.7 µM | MDA-MB-231 > 100 µM | DU-145 > 100 µM | Hs-578T 65.2 µM | HCT-116 41.7 µM | 786-0 > 100 µM | OVCAR-8 > 100 µM | BT-549 > 100 µM | CCRF-CEM 35.6 µM | U-251 > 100 µM | SF-268 > 100 µM | SN12C > 100 µM | SNB-19 > 100 µM | SK-MEL-5 15.2 µM | SNB-75 > 100 µM | SF-539 > 100 µM | NCI-H522 44.6 µM | IGROV-1 35.4 µM | M14 > 100 µM | UACC-257 34.4 µM | NCI-H23 40.2 µM | SW-620 > 100 µM | Malme-3M > 100 µM | SK-OV-3 > 100 µM | NCI/ADR-RES 60.8 µM | MCF7 > 10 µM
